Experimental data as given in patent US20110009399A1, “ORGANIC COMPOUNDS” (priority 2007, published 2011).

Molecular target: T1, renin (Homo sapiens, UniProt P00797)
T1 construct: This test measures the formation of angiotensin I in human plasma; from tissue; host or cells: human plasma
T1 sequence (P00797 67-406): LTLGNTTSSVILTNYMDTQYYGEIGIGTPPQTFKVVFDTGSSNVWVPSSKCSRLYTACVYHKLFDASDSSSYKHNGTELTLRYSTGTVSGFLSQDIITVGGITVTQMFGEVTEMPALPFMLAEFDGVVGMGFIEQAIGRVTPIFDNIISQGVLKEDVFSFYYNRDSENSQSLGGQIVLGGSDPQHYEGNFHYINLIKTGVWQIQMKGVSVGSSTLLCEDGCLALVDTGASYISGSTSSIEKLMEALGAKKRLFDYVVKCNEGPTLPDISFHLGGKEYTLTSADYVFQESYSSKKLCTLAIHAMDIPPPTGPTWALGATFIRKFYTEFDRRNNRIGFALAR
Assay: in vitro test of Nussberger et al.: formation of angiotensin I in human plasma, radioimmunoassay
Format: biochemical
Conditions: values given as 'in the range of about', read-out: IC50, inhibition of the formation of angiotensin I
Method: The effect of renin inhibitors is detected inter alia experimentally by means of in vitro tests where the reduction in the formation of angiotensin I is measured in various systems (human plasma, purified human renin together with synthetic or natural renin substrate). The following in vitro test of Nussberger et al. (1987) J. Cardiovascular Pharmacol., Vol. 9, pp. 39-44, is used inter alia. This test measures the formation of angiotensin I in human plasma. The amount of angiotensin I formed is determined in a subsequent radioimmunoassay. The effect of inhibitors on the formation of angiotensin I is tested in this system by adding various concentrations of these substances. […] The compounds of the present invention show inhibitory effects in the in vitro systems at minimal concentrations of about 10^−6 to about 10^−10 mol/l.

| IC50 [nM] | SMILES |
| --- | --- |
| 1 to 20 | CCO[C@H](C)COCc1ccc2c(c1)CCO[C@@]21CCNC[C@@H]1OCc1ccc2c(c1)N(CCCOC)CCO2 [Example 2, (1S,3′S)-6-({[(2R)-2-Ethoxypropyl]oxy}methyl)-3′-{[4-(3-methoxypropyl)-3,4-dihydro-2H-1,4-benzoxazin-6-yl]methoxy}-3,4-dihydrospiro[isochromene-1,4′-piperidine]] |
| 1 to 20 | COCCCN1CCOc2ccc(CO[C@H]3CNCC[C@@]34OCc3cc(COC[C@@H](C)COC)ccc34)cc21 [Example 7, (1S,3′S)-5-({[(2S)-3-methoxy-2-methylpropyl]oxy}methyl)-3′-{[4-(3-methoxy-propyl)-3,4-dihydro-2H-1,4-benzoxazin-6-yl]methoxy}-3H-spiro[2-benzofuran-1,4′-piperidine]] |
| 1 to 20 | CCOC(C)COCc1ccc2c(c1)OCCOC21CCNCC1OCc1ccc2c(c1)N(CCCOC)CCO2 [Example 14, (3′S,5S)-8-({[(2R)-2-Ethoxypropyl]oxy}methyl)-3′-{[4-(3-methoxypropyl)-3,4-dihydro-2H-1,4-benzoxazin-6-yl]methoxy}-2,3-dihydrospiro[1,4-benzo-dioxepine-5,4′-piperidine]] |
